Earlier results on one compound are cited in patent US20050080043A1, “Self-preserved antibacterial nasal, inhalable, and topical ophthalmic preparations and medications” (priority 2000, published 2005).

SMILES strings stand for the structures. Like-named read-outs stand apart in the source and are kept apart here.

For `CC[C@@H]1C(=O)OC[C@@H]1Cc1cncn1C` [pilocarpine], the “stability of drug solution” value reads like this: (pH 5.0) “very stable”; (pH 6.8) “relatively unstable”.
